Test results from ChEMBL document CHEMBL5465560, “Selectivity Literature for EUbOPEN Chemogenomic Library” (2024).

What was measured:
[1] = target: T1, Mitogen-activated protein kinase kinase kinase 15 (Homo sapiens) (UniProt Q6ZN16); assay: Selectivity interaction (KinomeScan (DiscoverX)) EUB0000229b MAP3K15; conditions: at 10 µM
T1 sequence (whole entry): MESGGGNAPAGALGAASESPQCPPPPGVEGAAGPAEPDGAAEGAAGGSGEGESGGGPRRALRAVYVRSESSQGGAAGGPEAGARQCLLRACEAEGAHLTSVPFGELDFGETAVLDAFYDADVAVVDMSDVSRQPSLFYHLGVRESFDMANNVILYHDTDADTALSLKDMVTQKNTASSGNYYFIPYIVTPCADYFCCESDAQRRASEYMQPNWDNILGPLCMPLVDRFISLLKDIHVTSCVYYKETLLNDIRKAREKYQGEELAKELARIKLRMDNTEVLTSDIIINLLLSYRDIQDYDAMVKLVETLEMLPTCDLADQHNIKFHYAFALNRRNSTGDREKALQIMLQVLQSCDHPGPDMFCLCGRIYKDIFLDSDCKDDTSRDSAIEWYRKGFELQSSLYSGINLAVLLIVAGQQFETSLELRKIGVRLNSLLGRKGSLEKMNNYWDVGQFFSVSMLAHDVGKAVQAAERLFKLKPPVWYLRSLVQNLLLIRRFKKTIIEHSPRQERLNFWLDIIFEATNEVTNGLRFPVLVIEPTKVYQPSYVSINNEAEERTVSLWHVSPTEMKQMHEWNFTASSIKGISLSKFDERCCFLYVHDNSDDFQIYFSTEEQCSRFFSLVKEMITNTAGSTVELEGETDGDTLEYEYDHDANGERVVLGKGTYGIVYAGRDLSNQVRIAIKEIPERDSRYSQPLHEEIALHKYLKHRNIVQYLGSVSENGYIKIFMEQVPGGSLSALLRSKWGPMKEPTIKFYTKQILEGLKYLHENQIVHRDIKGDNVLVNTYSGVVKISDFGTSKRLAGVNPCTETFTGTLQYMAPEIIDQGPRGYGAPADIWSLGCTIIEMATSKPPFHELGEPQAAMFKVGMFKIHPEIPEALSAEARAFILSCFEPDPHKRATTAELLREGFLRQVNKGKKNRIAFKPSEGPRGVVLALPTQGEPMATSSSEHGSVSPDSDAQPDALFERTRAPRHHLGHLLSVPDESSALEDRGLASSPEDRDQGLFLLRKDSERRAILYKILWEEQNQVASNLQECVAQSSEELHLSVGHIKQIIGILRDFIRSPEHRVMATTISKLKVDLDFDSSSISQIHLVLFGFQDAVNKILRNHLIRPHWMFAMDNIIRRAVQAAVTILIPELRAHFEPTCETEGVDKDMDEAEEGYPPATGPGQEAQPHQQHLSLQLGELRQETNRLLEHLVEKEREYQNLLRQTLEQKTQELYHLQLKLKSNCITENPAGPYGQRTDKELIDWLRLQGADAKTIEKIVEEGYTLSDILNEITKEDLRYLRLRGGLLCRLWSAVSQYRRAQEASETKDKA

[2] = target: 1-phosphatidylinositol 3-phosphate 5-kinase (Homo sapiens) (UniProt Q9Y2I7); assay: Selectivity interaction (KinomeScan (DiscoverX)) EUB0001550a PIKFYVE; conditions: at 1 µM
Sequence of 1-phosphatidylinositol 3-phosphate 5-kinase (Homo sapiens) (Q9Y2I7 whole entry): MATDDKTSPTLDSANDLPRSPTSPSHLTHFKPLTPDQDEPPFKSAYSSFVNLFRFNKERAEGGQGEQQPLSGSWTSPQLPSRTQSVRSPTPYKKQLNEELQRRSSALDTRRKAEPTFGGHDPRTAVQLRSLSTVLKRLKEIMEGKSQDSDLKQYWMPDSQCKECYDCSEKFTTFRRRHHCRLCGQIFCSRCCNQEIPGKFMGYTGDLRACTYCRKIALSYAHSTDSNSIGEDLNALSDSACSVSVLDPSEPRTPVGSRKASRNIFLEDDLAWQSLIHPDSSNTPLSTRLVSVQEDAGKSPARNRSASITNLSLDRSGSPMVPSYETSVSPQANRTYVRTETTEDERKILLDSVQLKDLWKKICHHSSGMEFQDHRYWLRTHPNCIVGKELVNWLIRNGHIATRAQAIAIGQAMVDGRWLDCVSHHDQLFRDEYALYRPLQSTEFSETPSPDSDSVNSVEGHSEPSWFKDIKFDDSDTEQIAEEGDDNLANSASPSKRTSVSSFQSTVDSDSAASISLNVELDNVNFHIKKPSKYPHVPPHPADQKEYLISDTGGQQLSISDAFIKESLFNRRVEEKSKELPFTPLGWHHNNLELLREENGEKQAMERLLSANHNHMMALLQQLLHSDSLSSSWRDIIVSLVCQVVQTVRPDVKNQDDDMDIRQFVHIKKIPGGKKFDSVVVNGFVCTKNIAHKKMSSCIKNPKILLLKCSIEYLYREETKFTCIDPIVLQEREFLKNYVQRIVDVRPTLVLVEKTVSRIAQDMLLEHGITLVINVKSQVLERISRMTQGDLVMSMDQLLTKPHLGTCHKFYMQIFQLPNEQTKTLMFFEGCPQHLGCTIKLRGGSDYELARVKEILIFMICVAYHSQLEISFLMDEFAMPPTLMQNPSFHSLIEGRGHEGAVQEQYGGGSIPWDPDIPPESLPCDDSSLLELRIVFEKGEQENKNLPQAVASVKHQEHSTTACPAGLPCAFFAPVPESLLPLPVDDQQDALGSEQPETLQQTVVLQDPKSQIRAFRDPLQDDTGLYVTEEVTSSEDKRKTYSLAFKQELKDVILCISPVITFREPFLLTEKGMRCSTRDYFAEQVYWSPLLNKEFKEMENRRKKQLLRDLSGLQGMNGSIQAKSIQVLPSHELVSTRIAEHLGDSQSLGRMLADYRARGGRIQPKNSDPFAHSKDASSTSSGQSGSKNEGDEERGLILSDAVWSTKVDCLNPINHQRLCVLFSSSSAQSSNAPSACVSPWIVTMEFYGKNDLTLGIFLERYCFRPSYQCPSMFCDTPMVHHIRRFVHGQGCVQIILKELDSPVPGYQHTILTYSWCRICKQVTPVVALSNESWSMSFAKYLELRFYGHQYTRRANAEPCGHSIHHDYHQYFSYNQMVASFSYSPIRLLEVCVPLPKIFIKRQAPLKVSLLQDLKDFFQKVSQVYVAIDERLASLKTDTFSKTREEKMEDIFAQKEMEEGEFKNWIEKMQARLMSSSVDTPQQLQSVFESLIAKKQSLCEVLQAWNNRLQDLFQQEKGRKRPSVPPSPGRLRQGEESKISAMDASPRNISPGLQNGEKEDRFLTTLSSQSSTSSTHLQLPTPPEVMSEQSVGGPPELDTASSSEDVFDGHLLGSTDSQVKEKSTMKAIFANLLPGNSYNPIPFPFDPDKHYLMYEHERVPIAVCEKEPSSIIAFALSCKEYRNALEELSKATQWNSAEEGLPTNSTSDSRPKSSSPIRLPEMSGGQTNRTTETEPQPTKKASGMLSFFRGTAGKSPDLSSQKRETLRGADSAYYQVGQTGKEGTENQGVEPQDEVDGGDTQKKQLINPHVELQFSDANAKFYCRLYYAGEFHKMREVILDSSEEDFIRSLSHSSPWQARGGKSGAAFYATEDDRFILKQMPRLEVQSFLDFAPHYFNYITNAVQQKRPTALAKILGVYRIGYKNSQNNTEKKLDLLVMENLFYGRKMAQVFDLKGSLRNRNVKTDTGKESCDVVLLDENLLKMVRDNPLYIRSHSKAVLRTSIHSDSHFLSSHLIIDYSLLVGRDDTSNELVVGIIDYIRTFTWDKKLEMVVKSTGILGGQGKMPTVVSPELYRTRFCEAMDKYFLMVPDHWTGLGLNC

[3] = target: T2, cGMP-dependent protein kinase 2 (Homo sapiens) (UniProt Q13237); conditions: at 10 µM
T2 sequence (whole entry): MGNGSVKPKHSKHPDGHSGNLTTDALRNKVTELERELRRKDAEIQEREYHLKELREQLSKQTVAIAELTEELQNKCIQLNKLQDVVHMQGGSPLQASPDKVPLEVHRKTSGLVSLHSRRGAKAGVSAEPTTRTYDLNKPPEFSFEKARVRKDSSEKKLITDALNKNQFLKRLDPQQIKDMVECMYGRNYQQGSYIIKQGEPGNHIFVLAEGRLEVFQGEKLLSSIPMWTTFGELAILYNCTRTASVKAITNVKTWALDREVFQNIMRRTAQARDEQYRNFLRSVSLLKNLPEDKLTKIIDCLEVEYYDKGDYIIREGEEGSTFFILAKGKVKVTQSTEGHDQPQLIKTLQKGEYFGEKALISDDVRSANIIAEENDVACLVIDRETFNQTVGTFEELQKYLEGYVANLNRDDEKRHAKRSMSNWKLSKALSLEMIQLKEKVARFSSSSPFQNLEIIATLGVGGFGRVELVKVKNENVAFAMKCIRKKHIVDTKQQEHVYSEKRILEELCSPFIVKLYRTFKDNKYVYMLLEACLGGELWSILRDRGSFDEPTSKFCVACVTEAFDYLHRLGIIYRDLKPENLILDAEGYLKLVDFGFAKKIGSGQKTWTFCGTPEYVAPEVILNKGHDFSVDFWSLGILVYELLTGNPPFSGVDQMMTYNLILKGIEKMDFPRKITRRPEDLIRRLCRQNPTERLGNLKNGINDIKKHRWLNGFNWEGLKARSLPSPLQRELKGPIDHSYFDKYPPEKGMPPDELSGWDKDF

[4] = target: Interferon-induced, double-stranded RNA-activated protein kinase (Homo sapiens) (UniProt P19525); assay: Selectivity interaction (KinomeScan (DiscoverX)) EUB0000695a EIF2AK2; conditions: at 100 nM
Sequence of Interferon-induced, double-stranded RNA-activated protein kinase (Homo sapiens) (P19525 whole entry): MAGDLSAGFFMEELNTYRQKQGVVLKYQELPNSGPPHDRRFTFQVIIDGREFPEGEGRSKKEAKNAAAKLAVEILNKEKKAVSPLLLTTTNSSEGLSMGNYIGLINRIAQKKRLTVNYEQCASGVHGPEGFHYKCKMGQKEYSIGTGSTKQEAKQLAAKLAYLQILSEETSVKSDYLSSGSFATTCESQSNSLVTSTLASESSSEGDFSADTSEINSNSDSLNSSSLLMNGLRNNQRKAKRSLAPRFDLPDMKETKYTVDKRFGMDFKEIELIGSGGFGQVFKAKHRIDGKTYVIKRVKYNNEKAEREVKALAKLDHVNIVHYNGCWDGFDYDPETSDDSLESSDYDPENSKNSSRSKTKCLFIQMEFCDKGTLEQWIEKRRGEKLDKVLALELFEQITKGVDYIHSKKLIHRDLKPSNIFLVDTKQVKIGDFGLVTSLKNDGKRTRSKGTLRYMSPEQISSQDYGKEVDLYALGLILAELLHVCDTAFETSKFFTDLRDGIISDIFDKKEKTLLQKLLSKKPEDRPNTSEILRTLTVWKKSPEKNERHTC

[5] = target: T3, Serine/threonine-protein kinase BRSK2 (Homo sapiens) (UniProt Q8IWQ3); assay: Selectivity interaction (LanthaScreen Eu Kinase Binding Assay) EUB0001632a BRSK2; conditions: at 10 µM
T3 sequence (whole entry): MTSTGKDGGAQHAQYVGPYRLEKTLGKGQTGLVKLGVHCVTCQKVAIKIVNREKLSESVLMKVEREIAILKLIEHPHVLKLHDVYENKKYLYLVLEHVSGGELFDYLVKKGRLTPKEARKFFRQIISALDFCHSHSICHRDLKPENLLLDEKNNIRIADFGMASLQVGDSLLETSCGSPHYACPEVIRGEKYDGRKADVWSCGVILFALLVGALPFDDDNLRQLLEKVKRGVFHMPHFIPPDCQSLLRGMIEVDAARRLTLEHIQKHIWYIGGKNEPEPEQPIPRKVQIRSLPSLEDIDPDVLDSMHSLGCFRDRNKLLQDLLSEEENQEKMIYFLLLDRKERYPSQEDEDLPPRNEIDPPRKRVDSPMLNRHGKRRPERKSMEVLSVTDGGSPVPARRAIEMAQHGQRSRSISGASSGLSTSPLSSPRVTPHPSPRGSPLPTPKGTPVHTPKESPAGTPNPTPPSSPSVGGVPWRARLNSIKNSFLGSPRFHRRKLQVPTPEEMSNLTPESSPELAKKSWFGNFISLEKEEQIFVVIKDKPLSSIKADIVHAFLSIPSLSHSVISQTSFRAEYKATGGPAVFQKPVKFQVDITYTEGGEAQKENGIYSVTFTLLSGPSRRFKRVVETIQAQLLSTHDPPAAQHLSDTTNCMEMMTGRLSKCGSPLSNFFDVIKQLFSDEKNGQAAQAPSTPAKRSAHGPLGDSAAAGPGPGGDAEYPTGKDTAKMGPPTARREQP

[6] = target: Serine/threonine-protein kinase 32C (Homo sapiens) (UniProt Q86UX6); assay: Selectivity interaction (LanthaScreen Eu Kinase Binding Assay) EUB0001632a STK32C; conditions: at 10 µM
Sequence of Serine/threonine-protein kinase 32C (Homo sapiens) (Q86UX6 whole entry): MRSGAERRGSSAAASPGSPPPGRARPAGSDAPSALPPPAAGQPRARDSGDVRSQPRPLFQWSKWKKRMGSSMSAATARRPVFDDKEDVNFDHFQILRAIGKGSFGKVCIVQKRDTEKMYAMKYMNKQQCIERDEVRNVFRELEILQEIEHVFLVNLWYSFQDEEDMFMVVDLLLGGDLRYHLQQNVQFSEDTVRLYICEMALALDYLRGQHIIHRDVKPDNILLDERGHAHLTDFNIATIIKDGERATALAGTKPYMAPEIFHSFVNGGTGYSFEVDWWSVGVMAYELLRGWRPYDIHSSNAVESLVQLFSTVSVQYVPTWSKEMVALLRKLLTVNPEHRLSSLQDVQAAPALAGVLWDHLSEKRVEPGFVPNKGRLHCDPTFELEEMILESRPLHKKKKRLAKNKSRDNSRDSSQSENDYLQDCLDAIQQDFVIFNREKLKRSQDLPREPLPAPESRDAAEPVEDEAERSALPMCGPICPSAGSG

## COc1cc(N(C)c2ccnc3ccc(C(F)(F)F)cc23)cc(OC)c1OC
[1]
  % binding: 100%

## CN(C)CC#Cc1ccc2[nH]c3c(c2c1)-c1nc(N)ncc1CCC3
[2]
  % of control: 0.1%

## CCN(CC)CCCCNc1ncc2cc(-c3cc(OC)cc(OC)c3)c(NC(=O)NC(C)(C)C)nc2n1
[3]
  % of control: 100%

## Cc1cc(F)c(C(=O)Nc2cccc(-c3nncn3C(C)C)n2)cc1-n1cnc(C2CC2)c1
[4]
  % of control: 100%

## Cn1cc(-n2cnc3c(NCc4nc5cc(Cl)c(Cl)cc5[nH]4)nc(N4CCOCC4)nc32)cn1
[5]
  % of inhibition: -172%
[6]
  % of inhibition: -34.6%
